# According to patent US20150175585A1, “FUSED QUINONIC COMPOUNDS” (CENTRO ATLANTICO DEL MEDICAMENTO S.A (CEAMED, S.A.), priority 2012, published 2015):
# Experiments:
# HEL cells = test: Induction of apoptosis in HEL cells (annexin-V-FITC/propidium iodide flow cytometry); type: cell-based, human; conditions: 24 or 48 hours
# Description: FIG. 3. • Analysis of phosphatidylserine externalization in human erythroleukemia cells (HEL) treated with compound 4 or the reported JAK-STAT inhibitor WP 1066. A) At different concentrations for 24 hours. B) Representation of the data obtained after treatment of cells with 5 μM of compound 4 for 48 hours compared to vehicle. (C) Data obtained after treatment of the cells with a concentration of 5 μM of compound 4 for 24 or 48 hours. Data are representative of three experiments. * Signifies a P<0.01 difference from control. ^0 Signifies a P<0.001 difference from control.
# Human erythroleukemia (HEL) cells, at a density of 1.5×10^5 cells/ml, were treated with compound 4 at the indicated concentrations for 24 or 48 hours. The cells were incubated with propidium iodide and annexin-V-FITC and the quantity of phosphatidylserine externalized was determined using flow cytometry.
# STAT5 = test: Epo induced STAT5 phosphorylation in HEL cells (Western immunoblotting); type: cell-based, human; conditions: serum deprived HEL cells; 5 μM for 0.5-3 h or 0.5-10 μM for 3 h; Epo 10 units/ml 5 min
# Description: FIG. 1. • A) Overnight serum deprived HEL cells were stimulated with Epo (10 units/ml) for 5, 10, 20, 30, 45 and 60 min. JAK2, pYJAK2, STAT5 and pYSTAT5 were detected using Western immunoblotting as described in methods. B) Overnight serum deprived HEL cells were pre-incubated with compound 4 (C4) (5 μM) for 0.5, 1, 2, and 3 h, and subsequently stimulated with 10 units/ml Epo for 5 min. JAK2, pYJAK2, STAT5 and pYSTAT5 were detected using Western immunoblotting as described in methods. C) Overnight serum deprived HEL cells were pre-incubated with C4 at increasing concentrations (0.5-10 μM) for 3 h, and subsequently stimulated with 10 units/ml Epo for 5 min. JAK2, pJAK2, STAT5 and pSTAT5 were detected using Western immunoblotting as described in methods. […]
# For total protein extraction, cells were scraped with RIPA 1× lysis buffer (25 mM Tris-HCl pH 7.6, 150 mM NaCl, 1% NP-40, 1% sodium deoxycholate, 0.1% SDS, no. 89900, Thermo Scientific, Rockford, Ill., USA) supplemented with 1× protease and 1× phosphatase inhibitor cocktails (100× Halt™ Protease Inhibitor Cocktail, no. 87786 and 100× Halt™ Phosphatase Inhibitor Cocktail, no. 78420, both from Thermo Scientific, Rockford, Ill., USA). An aliquot of each extract was preserved for protein quantification by bicinchoninic acid assay (Pierce® BCA Protein Assay Kit, no. 23225, Thermo Scientific, Rockford, Ill., USA). […]
structure (smiles),measurement,setting,value
"N#Cc1ccc(C2C3=C(CCCC3=O)OC3=C2C(=O)c2ccccc2C3=O)cc1 (centres unmarked) [Compound 4, 4-(1,6,11-trioxo-2,3,4,6,11,12-hexahydro-1H-benzo[b]xanthen-12-yl)benzonitrile]",apoptosis of HEL cells (phosphatidylserine externalization),HEL cells,"induced, in a dose and time dependent manner, apoptosis"
same,Epo-induced phosphorylation of STAT5,STAT5,"inhibits, in a time/dose dependent manner"
